From patent US8865775B2, “Anti-inflammatory agent and cancer-preventive agent comprising canolol or prodrug thereof and pharmaceutical, cosmetic and food comprising the same” (priority 2004, dated 2014)

Columns and labels:
[1] = test system: gastric carcinoma in Mongolian gerbils; assay: Suppression of gastric carcinogenesis in gerbils infected with H. pylori and treated with MNU; assay type: in vivo
Text: They were divided into two groups: one was fed with AIN-93G diet for mice containing 0.1% of canolol (“canolol-fed group”); the other was fed with the same diet compositions without canolol. […] Ten gerbils per group were examined.
Thin slices obtained from the paraffin blocks were examined with HE (hematoxyline eosin) staining under microscope.

[2] = Half-life in the culture medium; assay type: physicochemical
Text: (§1) At the inflammatory site, peroxynitrite (ONOO^−) is excessively generated as a result of inflammatory reaction, and toxic effect thereof to living cells is one of the cause of pathogenesis. It was anticipated that canolol would exert protective effects against said toxicity of ONOO^− to cultured cells.

[3] = test system: NO production from macrophages; assay: Suppression of NO production from LPS + IFN-γ treated peritoneal macrophages (Gries method); assay type: cell-based, BALB/c mice; conditions: LPS 1 μg/ml + IFN-γ 0.1 μg/ml, 24 hours
Description: Next, the inflammatorily exuded peritoneal macrophages were treated with bacterial (E. coli) lipopolysaccharide (LPS) (1 μg/ml) and interferon-γ (0.1 μg/ml) in vitro, then the amount of NO, the inflammatory mediator released from the macrophages, was quantified as NO3^−+NO2^− by a conventional method (Gries method) [Stuehr D J, et al, J. Exp. Med., 169, 1543-55 (1989)] (FIG. 4). That is, to the 6-week old female BALB/c mice (SPF), 10% proteose peptone (1 ml) was injected intraperitoneally. The exuded peritoneal macrophages were collected by peritoneal puncture using a needled syringe, centrifuged in the presence of 10% heat-inactivated fetal calf serum and washed. The peritoneal macrophages (1×10^5/well), LPS (1 μg/ml), interferon-γ (IFN-γ) (0.1 μg/ml) and variable doses of canolol (5, 12.5, 25, 50, 100 μM) were plated in the plastic microplate (96-well) (Sumitomo Bakelite, Cat. #MS-8096F), and allowed to incubate for 24 hours at 37° C., under 5% CO2 and 95% air. Then, nitrite and nitrate ions in the supernatant were quantified by the Gries method. The culture medium used for the macrophages was RPMI-1640 containing 10% of heat-inactivated fetal calf serum. As control groups, LPS alone, and LPS+IFN-γ without canolol were used. The vertical axis of FIG. 4 indicates the total amount of nitrate and nitrite ions.

[4] = test system: human embryonic kidney epithelial cells HEK 293; assay: Neutralization of peroxynitrite (SIN-1) toxicity to cultured cells, MTT method; assay type: cell-based; conditions: SIN-1 100 μM, HEK 293, MTT
Text: as §1

[5] = test system: 8-oxodeoxyguanosine (8-OHdG); assay: 8-OHdG production in gastric specimens, fluorescent antibody staining; assay type: in vivo, Mongolian gerbils; conditions: after 12 weeks
Text: (§2) The six-week old Mongolian gerbils were given drinking water with 10 ppm of MNU (a carcinogen N-methylnitrosourea) for one week followed by oral infection with Helicobacter pylori ATCC 43504 strain, or were orally infected with 1×10^8 CFU of H. pylori and 10 ppm of MNU were then given for one week. They were divided into two groups: one was fed with AIN-93G diet for mice containing 0.1% of canolol (“canolol-fed group”); the other was fed with the same diet compositions without canolol. The experiment was continued for up to 52 weeks (X. Cao et al, Jpn. J. Cancer Res., 93, 1293-1298 (2002), N. Shimizu, et al, Cancer Res., 60, 1512-1514 (2000)). Ten gerbils per group were examined.
(§3) 8-OHdG is one of the markers of inflammatory disorders that are generated as a result from a reaction of reactive oxygen species with DNA, said reactive oxygen species being derived from inflammatory cells in vivo. The amount of 8-OHdG produced was studied under similar conditions as Example (1) using a conventional fluorescent antibody staining method with the anti-8-OHdG antibody against excised gastric specimens of each group after 12 weeks.

[6] = test system: inducible form of NO synthase (iNOS); assay: Induction of iNOS in gastric lesions infected with H. pylori, immunostaining; assay type: in vivo, Mongolian gerbils; conditions: immunostaining quantification, 12 weeks, n = 10
Text: as §2
(§4) The expression levels of both enzymes were quantified by means of enzyme antibody using the specimens of Example (1) prepared 12 weeks after administration according to Example (2) . Both COX-2 and iNOS induced during inflammation are typical enzymes to onset an inflammation reaction. Namely, COX-2 produces prostanoid inflammatory mediators such as prostaglandin E2, and iNOS produces nitric oxide (NO), where these mediators and NO evokes inflammation. Both superoxide (O2^−) and NO produced at the site of inflammation immediately react with each other and form more reactive peroxynitrite (ONOO^−) (described later).

[7] = test system: Salmonella typhimurium TA102; assay: Suppression of ONOO- induced mutant colony formation (modified Ames medium); assay type: cell-based; conditions: 8 μM canolol; ONOO- at or above 4 μM
Description: 1×10^8 CFU of Salmonella typhimurium TA102 was taken into a beaker under sterile condition, then ONOO^− was continuously infused under stirring to make a predetermined concentration of ONOO^− between 1-800 μM. (FIG. 7A). An aliquot of S. typhimurium at each time point was removed to a petri dish containing modified Ames medium which permits selective growth of only mutant strains, and was cultured. […] The mutant colonies were formed progressively at or above 4 μM of ONOO^−, while they were not formed with addition of 8 μM canolol.

[8] = test system: Mongolian gerbils infected with Helicobacter pylori ATCC 43504; assay: Suppression of gastritis in Mongolian gerbils infected with H. pylori and given MNU (pathology of excised stomach); assay type: in vivo; conditions: diet containing 0.1% canolol for 12 weeks; vs diet without canolol
Text: as §2

[9] = test system: cycloxygenase-2 (COX-2); assay: Induction of COX-2 in gastric lesions infected with H. pylori, immunostaining; assay type: in vivo, Mongolian gerbils; conditions: immunostaining quantification, 12 weeks, n = 10
Text: as §2, §4

[10] = test system: stomach tissues of gerbils infected with H. pylori; assay: Infiltration of neutrophils and hyperplasia in stomach tissues, hematoxylin-eosin staining; assay type: in vivo, Mongolian gerbils; conditions: 12 weeks
Text: as §2
Specimens of Example (1) were prepared 12 weeks after administration. Stomach specimens were prepared and examined under microscope after conventional hematoxylin-eosin staining.

[11] = test system: Helicobacter pylori; assay: H. pylori count in mid-stomach tissues of infected gerbils; assay type: in vivo; conditions: after 12 weeks
Text: as §2, §3

[12] = test system: peritoneal macrophages; assay: Effect on survival of macrophages; assay type: cell-based, BALB/c mice
[13] = Hp + MNU, number of gerbils, after 57 weeks
[14] = mid-stomach tissue, 0.1% canolol diet

Cc1cc(C(C)(C)C)c(O)c(C(C)(C)C)c1 [BHT, 2,6-di-tert-butyl-4-methylphenol]
Incidence of carcinoma, Frequency (%) ([1]; Hp + MNU, after 57 weeks): (39.4) %
Incidence of carcinoma, Frequency (gerbils with carcinoma/group) ([1]; Hp + MNU, after 57 weeks): 13/33
Incidence of carcinoma, Differentiation [1, 13]: 11
Incidence of carcinoma, Undifferentiation [1, 13]: 2
Rate of suppression (%) ([1]; Hp + MNU, vs group I (Hp + MNU), after 57 weeks): 6.5%

Cl.N=c1c[n+](N2CCOCC2)[n-]o1 [SIN-1, 3-(4-morpholinyl) sydnonimine HCl]
half-life [2]: 6 h

C=Cc1cc(OC)c(O)c(OC)c1 [canolol, 4-vinyl-2,6-dimethoxyphenol]
effective concentration [3]: 10 to 100 µM
concentration that significantly neutralized the toxicity of ONOO- [4]: 12.5 to 50 µM
8-OHdG production in vivo [5]: exerted suppressive activity
Amount of 8-OHdG (ratio) [5, 14]: 19.6 ± 5.5 ratio
iNOS, Gastric antrum [6]: 0.9 ± 0.1
iNOS, Gastric corpus [6]: 0.5 ± 0.1
mutant colony formation by ONOO- [7]: not formed
inflammation of gastric epithelium [8]: markedly suppressed
suppression of the cancer incidence ([1]; 0.1% canolol vs without canolol): 64%
cancer incidence ([1]; gerbils fed with 0.1% canolol, around 57 weeks): 15%
COX-2, Gastric antrum [9]: 0.9 ± 0.2
COX-2, Gastric corpus [9]: 0.6 ± 0.2
gastritis in both gastric antrum and corpus [10]: significantly suppressed
Hyperplasia, Gastric antrum ([10]; n = 10): 1.2 ± 0.6
Hyperplasia, Gastric corpus ([10]; n = 10): 0.7 ± 0.2
Neutrophil infiltration, Gastric antrum ([10]; n = 10): 1.2 ± 0.4
Neutrophil infiltration, Gastric corpus ([10]; n = 10): 0.9 ± 0.2
antibacterial activity ([11]; in vivo, gerbil stomach): did not show any antibacterial activity
H. pylori count (CFU) [11, 14]: 4.42 ± 0.2 CFU
toxicity to macrophages (survival) ([12]; at 100 μM): essentially non-toxic
cytotoxic concentration ([12]; macrophages): ≥ 800 µM
